Source: patent US9867869B2, “Insulin derivatives for diabetes treatment” (Massachusetts Institute of Technology, priority 2012, dated 2018)
Each block holds one compound with its values, some of them ahead of it.

Columns and labels:
[1] = 11B NMR complexation efficiency with 4-carboxyphenylboronic acid; type: physicochemical; conditions: PBS 0.1M, 37° C.
Procedure: ^11B NMR spectra were recorded on a VARIAN Inova-500 spectrometer operated at 160.3 MHz with gXH switchable broadband probe installed. Samples at a concentration of 10 mM were transferred to a 5 mm Norell natural quartz NMR tube (Sigma-Aldrich). Diols and 4-carboxyphenylboronic acids were co-dissolved in phosphate buffer, 0.1 M at pH 7.4 or 8.5 and tested at 37° C.
PBA is known to recognize and bind to compounds containing 1,2- and 1,3-diol residues via the formation of a boronate ester [Wang et al., Curr. Org. Chem. 2002, 6, 1285-1317]. At aqueous conditions the boronate ester is a dynamic complex. […] In order to achieve this goal, a variety of commercially available azido substituted diols were tested for their ability to complex with PBA. […] In addition, the effect of azide group on the binding with PBA is unknown. Therefore, 4 commercially available azido diols (FIGS. 16A to 16D) were selected for testing based on their diverse structures. These compounds include azido-substituted monosaccharides (A and C), disaccharide (B), oligosaccharide (C), adenosine (D) and dopamine (E). The complexation between 4-carboxyphenylboronic acid and above materials was evaluated using ^11B NMR (FIG. 16, Table 1).
The chemical shift of boron in PBA changes when it is complexed with a diol. […] Therefore, the efficiency of complexation was estimated by monitoring the ratio of these two peaks. The effect of pH on complexation and structure of diols was studied.

[2] = 11B NMR complexing efficiency with 1TBA; type: physicochemical
Procedure: (§1) Direct complexation of DP3-Insulin was carried out at an aqueous/organic 2/1 v/v solution in order to enable co-solubility with hydrophobic phenylboronic acids. Equal molar quantities of 4NBA and DP3-Insulin (0.5 mM) were dissolved in 2:1 acetonitrile:PBS and then the pH was modified to 7.5 or 8.5 by adding calculated amount of concentrated NaOH solution. The obtained complex was immediately frozen in liquid nitrogen and then freeze dried to generate a white solid. Similarly, selected diols (glucose, fructose, 4EC, 2HA, Azido-6-glactose, DP1-peptide and DP3-peptide) were formulated via the direct method. In order to validate formation of a complex 4NBA-diols, 1TBA-solids obtained by the direct method, as well as, their organic/aqueous solutions (prior to freeze drying) were analyzed with ^11B NMR and via FTIR.
(§2) 1TBA and 4NBA complexing efficiency with selected diols was measured in similar conditions but at a mixture of acetonitrile/PBS 2:1, according to the direct formulation procedure. Solid PBA-DIOL complexes were evaluated in DMSO. Data were analyzed with VNMR 6.1c software. Chemical shifts are reported in parts per million (ppm) on the δ scale.

[3] = 11B NMR complexing efficiency with 4NBA; type: physicochemical; conditions: for Diol-PBA Complex %: 4NBA, pH 8.5, PBA:Diol 1:1, acetonitrile/PBS, room temperature; for degree of complexation with 4NBA: pH and equivalence not stated
Procedure: as §1, §2

[4] = Solubility of hydrophobic PBA as function of glucose or fructose concentration; type: physicochemical; conditions: PBS with 0-1000 mg/dL glucose or fructose, 6 hours, RT
Procedure: FIGS. 19A and 19B are graphs showing hydrophobic PBAs (1TBA, 4DBA and 4NBA) tested as a function of glucose (A) and fructose (B) concentrations in PBS. 10 mg of solid, hydrophobic PBA were dispersed in […] of phosphate buffer saline containing various concentrations of glucose and fructose; samples were mixed for 6 hours at room temperature, centrifuged, and aliquots were quantified against a calibration curve using reverse phase HPLC.
2.14. Solubility of Hydrophobic PBA as Function of Glucose or Fructose Concentration. 10 mg of Hydrophobic PBA (4DBA, 1TBA and 4NBA) were suspended in 40 ml vials containing phosphate buffer saline with various concentrations of glucose or fructose (0-1000 mg/dL); samples were mixed for 6 hours at RT. The solid suspension was centrifuged and aliquots were evaluated for PBA concentration. Analytical HPLC (Agilent 1200) was used to analyze samples. 2.15 Diol-Insulin Analogs PBA Affinity Test

[5] = 11B NMR stability of 4NBA:diol complexes in phosphate buffer; conditions: suspended in PBS, after 24 hr, pH 7.4, 37° C.
Procedure: FIG. 18 is a graph showing ^11B NMR analysis for the stability of 4NBA:diol complexes at phosphate buffer, 0.1 M, pH 7.4, 37° C. […] Solids were then separated via centrifugation and freeze dried. Samples were dissolved in DMSO-d^6 at a concentration of 10 mM and were tested at room temperature.
Complexation of DP3-Insulin with PBA was studied with ^11B NMR between 4NBA, 1TBA and selected diols (Table 2).

[6] = traditional phenylboronic acid; cited from earlier work
[7] = in vivo; cited from earlier work
[8] = pH 7.4, PBA:Diol 1:2, PBA 10 mM
[9] = pH 8.5, PBA:Diol 1:2, PBA 10 mM
[10] = pH 7.4, PBA:Diol 1:10, PBA 10 mM
[11] = pH 7.4, PBA:Diol 1:1, PBA 10 mM

- Complex % [1, 8]: 4.0%
- Complex % [1, 9]: 8.3%
Compound: [N-]=[N+]=N[C@@H]1O[C@H](CO)[C@@H](O[C@@H]2O[C@H](CO)[C@H](O)[C@H](O)[C@H]2O)[C@H](O)[C@H]1O [1-Azido-1-deoxy-beta-D-lactopyranoside]

- Diol-PBA Complex % ([2]; 1TBA, pH 8.5, PBA:Diol 1:1, acetonitrile/PBS, room temperature): 75%
- complexation ratio ([2]; pH of 7.5, PBA not specified (1TBA and 4NBA named)): 10%
- Diol-PBA Complex % [3]: 87%
Compound: CCc1ccc(O)c(O)c1 [4EC]

Compound: COc1ccc(CN(C2CCCCC2)S(=O)(=O)c2ccc(B(O)O)cc2)cc1 [4NBA, 4-(N-cyclohexyl-N-(4-methoxybenzyl)sulfamoyl)phenylboronic acid]
- solubility and glucose response range [4]: low solubility and response range within expected diabetic glucose levels

Compound: [N-]=[N+]=NC[C@@H](O)[C@H](O)[C@H](O)[C@@H](O)C=O [6-azido-6-deoxy-D-galactose]
- Complex % [1, 8]: 17.6%
- Complex % [1, 9]: 74.9%

- Complex % [1, 8]: 47.6%
- Complex % ([1]; pH 7.4, PBA:Diol 1:2, PBA 10 mM, listed as D): 48%
- Complex % [1, 9]: 61.6%
Compound: [N-]=[N+]=Nc1nc2c(N)ncnc2n1[C@@H]1O[C@H](CO)[C@@H](O)[C@H]1O [8-Azido-Adenoside]

- Complex % [1, 8]: 4.2%
- Complex % [1, 9]: 22.5%
Compound: [N-]=[N+]=N[C@H]1O[C@H](CO)[C@@H](O)[C@H](O)[C@@H]1O [Alpha-D-Mannopyranosyl azide]

- Complex % [1, 8]: 38.7%
- Complex % ([1]; pH 7.4, PBA:Diol 1:2, PBA 10 mM, listed as E): 39%
- Complex % [1, 10]: 58.1%
- Complex % [1, 9]: 100.0%
Compound: NCCc1ccc(O)c(O)c1 [Dopamine]

Compound: O=C(CO)[C@@H](O)[C@H](O)[C@H](O)CO [Frucrose]
- degree of complexation with 4NBA [3]: ~100%
- Complex % [1, 11]: 27.4%
- Complex % [1, 8]: 34.9%
- Complex % ([1]; pH 7.4, PBA:Diol 1:2, PBA 10 mM, listed as Fructose): 35%
- Complex % [1, 10]: 44.9%
- Complex % [1, 9]: 67.3%
- complexed form remaining [5]: above 50%

- degree of complexation with 4NBA [3]: 74%
- Complex % [1, 11]: 4.0%
- Complex % [1, 8]: 11.0%
- Complex % ([1]; pH 7.4, PBA:Diol 1:2, PBA 10 mM, listed as glucose): 11%
- Complex % [1, 10]: 22.8%
- Complex % [1, 9]: 49.4%
- Complex % ([1]; pH 8.5, PBA:Diol 1:2, PBA 10 mM, listed as glucose): up to 50%
- complexed form remaining [5]: less than 10%
Compound: O=C[C@H](O)[C@@H](O)[C@H](O)[C@H](O)CO [Glucose]

Compound: OB(O)c1ccccc1 [phenylboronic acid]
- pKa [6]: approximately 8.9

Compound: Lispro: fast acting insulin where B29 lysine and B28 proline have been switched
- duration of action [7]: 4 to 6 h
- onset time [7]: 5 to 15 min
- peak action [7]: 30 to 90 min

- Complex % [1, 11]: 7.5%
- Complex % ([1]; pH 8.5, PBA:Diol 1:1, PBA 10 mM): 4.0%
Compound: Maltoheptaose

- Diol-PBA Complex % [3]: 91%
Compound: azido-pentanoic-DOPA-GLY-DOPA-GLY-DOPA-GLY-NH2 [DP3-peptides]

Compound: glargine
- time basal level of insulin is maintained [7]: up to 24 hours
